Experimental data from patent US11738065B2, “Polypeptides and analogues thereof for use in the treatment of diabetes and bone disorders” (UNIVERSITY OF ULSTER, priority 2015, dated 2023).

Columns and labels:
high fat fed mice [1] = assay: Pancreatic insulin content and islet histology after 21 days treatment; assay type: in vivo
Protocol: (§1) On day 21, a non-fasted 24 h glucose profile was conducted. […] HOMA-IR was determined using the equation HOMA-IR=fasting glucose (mmol/l)×fasting insulin (mU/l)/22.5. […] Terminal analysis included measurement of total body fat and lean mass by DEXA scanning (Piximus Densitometer, Inside Outside Sales, Madison Wis., USA) and extraction of pancreatic tissue for analysis as detailed below. […] Briefly, pancreatic tissues were fixed in 4% parafolmaldehyde at 4° C. for 48 h. Pancreata were then embedded in paraffin wax and processed using an automated tissue processor (Leica TP1020, Leica Microsystems, Nussloch, Germany). Immunohistochemistry was performed as described by Vasu et al., 2014 (PLoS One. 2014 Jun. 26; 9(6):e101005). […] Abcam, ab6995) or guinea-pig anti-glucagon antibody (PCA2/4, 1:400; raised in-house). […] The slides were viewed under a FITC (488 nm) or TRITC filter (594 nm) using a fluorescent microscope (Olympus system microscope, model BX51) and photographed using a DP70 camera adapter system. Islet parameters were analysed using Cell^F image analysis software (Olympus Soft Imaging Solutions, GmbH). Blood samples were collected from the cut tip on the tail vein of conscious mice into chilled fluoride/heparin glucose micro-centrifuge tubes (Sarstedt, Numbrecht, Germany) at the time points indicated in the Drawings. Blood glucose was measured directly using a hand-held Ascencia Contour blood glucose meter (Bayer Healthcare, Newbury, Berkshire, UK).

BRIN-BD11 cells = assay: In vitro insulin secretion from BRIN-BD11 cells; assay type: cell-based
Protocol: BRIN-BD11 cells were used to assess the insulin releasing activity of polypeptides as described by […] et al., 1996 (Diabetes. 1996 August; 45(8):1132-40). Cells were cultured in RPMI-1640 growth media supplemented with 10% (v/v) foetal bovine serum (FBS) and 1% (v/v) antibiotics (penicillin (100 U/ml), streptomycin ([…])), in 75 cm2 sterile tissue culture flasks (Greiner bio-one, UK) maintained at 37° C. and 5% CO2 in a LEEC incubator (Laboratory technical engineering, Nottingham, UK). BRIN-BD11 cells were then seeded at a density of 150,000 cells/well in 24-well plates (Nunc, Roskilde, Denmark) and allowed to attach overnight at 37° C.

high fat fed mice [2] = assay: Insulin sensitivity test and HOMA-IR after 21 days treatment; assay type: in vivo
Protocol: as §1, with “GmbH).” for “GmbH). Blood samples were collected from the cut tip on the tail vein of conscious mice into chilled fluoride/heparin glucose micro-centrifuge tubes (Sarstedt, Numbrecht, Germany) at the time points indicated in the Drawings. Blood glucose was measured directly using a hand-held Ascencia Contour blood glucose meter (Bayer Healthcare, Newbury, Berkshire, UK).”

high fat fed mice [3] = assay: Sub chronic 21 day twice daily study in high fat fed mice (energy intake, body weight, body composition, glucose, insulin); assay type: in vivo; details: 25 nmol/kg twice daily
Protocol: as §1, with “All animal experiments were carried out in accordance with the UK Animals (Scientific Procedures) Act 1986. […] On” for “On”, “Germany).” for “Germany). Immunohistochemistry was performed as described by Vasu et al., 2014 (PLoS One. 2014 Jun. 26; 9(6):e101005).”

CC[C@H](C)[C@H](NC(=O)[C@H](CO)NC(=O)[C@H](Cc1ccc(O)cc1)NC(=O)[C@H](CC(=O)O)NC(=O)[C@H](CO)NC(=O)[C@@H](NC(=O)[C@H](Cc1ccccc1)NC(=O)[C@@H](NC(=O)CNC(=O)[C@H](CCC(=O)O)NC(=O)[C@@H](C)NC(=O)[C@@H](N)Cc1ccc(O)cc1)[C@@H](C)O)[C@@H](C)CC)C(=O)N[C@@H](C)C(=O)N[C@@H](CCSC)C(=O)N[C@@H](CC(=O)O)C(=O)N[C@@H](CCCCN)C(=O)N[C@H](C(=O)N[C@@H](Cc1c[nH]cn1)C(=O)N[C@@H](CCC(N)=O)C(=O)N[C@@H](CCC(N)=O)C(=O)N[C@@H](CC(=O)O)C(=O)N[C@@H](Cc1ccccc1)C(=O)N[C@H](C(=O)N[C@@H](CC(N)=O)C(=O)N[C@@H](Cc1c[nH]c2ccccc12)C(=O)N[C@@H](CC(C)C)C(=O)N[C@@H](CC(C)C)C(=O)N[C@@H](C)C(=O)N[C@@H](CCC(N)=O)C(=O)N[C@@H](CCCCN)C(=O)NCC(=O)N[C@@H](CCCCN)C(=O)N[C@@H](CCCCN)C(=O)N[C@@H](CC(N)=O)C(=O)N[C@@H](CC(=O)O)C(=O)N[C@@H](Cc1c[nH]c2ccccc12)C(=O)N[C@@H](CCCCN)C(=O)N[C@@H](Cc1c[nH]cn1)C(=O)N[C@@H](CC(N)=O)C(=O)N[C@H](C(=O)N[C@H](C(=O)N[C@@H](CCC(N)=O)C(=O)O)[C@@H](C)O)[C@@H](C)CC)C(C)C)[C@@H](C)CC [(DAla2)GIP, TYR-(d)ALA-GLU-GLY-THR-PHE-ILE-SER-ASP-TYR-SER-ILE-ALA-MET-ASP-LYS-ILE-HIS-GLN-GLN-ASP-PHE-VAL-ASN-TRP-LEU-LEU-ALA-GLN-LYS-GLY-LYS-LYS-ASN-ASP-TRP-LYS-HIS-ASN-ILE-THR-GLN]
Pancreatic islet area and beta cell area (high fat fed mice [1]; 21 days twice daily 25 nmol/kg): no significant effect | Pancreatic alpha cell area (high fat fed mice [1]; 21 days twice daily 25 nmol/kg, vs high fat controls): decreased (P<0.001) | Number of islets per mm2 (high fat fed mice [1]; 21 days, vs all other groups of mice): significantly (P<0.05 to P<0.01) augmented | Insulin secretion from BRIN-BD11 cells (BRIN-BD11 cells; 10^−6 mol/l peptide, 20 min, vs 5.6 and 16.7 mmol/l glucose control): significantly (P<0.05 to P<0.001) stimulated insulin secretion | Insulin release from BRIN-BD11 cells (BRIN-BD11 cells; 10^−8 M peptide, vs 5.6 and 16.7 mmol/l glucose controls respectively): significant (P<0.001 and P<0.01; respectively) increases in insulin release | HOMA-IR insulin sensitivity (high fat fed mice [2]; 21 days treatment, vs high fat controls): significantly (P<0.05) improved insulin sensitivity | Individual blood glucose levels following exogenous insulin (high fat fed mice [2]; insulin 15 U/kg i.p., day 21, vs high fat controls): reduced, albeit non-significantly | Overall glucose lowering effect of insulin (blood glucose AAC 0-60 min) (high fat fed mice [2]; insulin 15 U/kg i.p., day 21, vs saline control high fat mice): significantly (P<0.001) improved | Non-fasting 24 h glucose profile on day 21 (high fat fed mice [3]): also reduced, but not to the same extent | Circulating plasma insulin (high fat fed mice [3]; 21 days): tendency for reduced plasma insulin levels | Energy intake or body weight (high fat fed mice [3]; 21 days, vs high fat controls): no significant effect | Total body fat and lean mass (DXA) (high fat fed mice [3]; after 21 days): unaltered | Non-fasting blood glucose vs lean control mice (high fat fed mice [3]; from day 12 onwards): not significantly different from lean control mice
